Data: patent US20080125377A1, “DELIVERY SYSTEM FOR ANTIANGIOGENIC AND ANTIINFLAMMATORY PHARMACEUTICALS AND METHOD OF USE” (priority 2006, published 2008)
Entries after “also recorded” stand apart in the source; their conditions may differ.

Tests used:
[1] = system: rhVEGF165-induced blood-retinal barrier breakdown; test: Blood-retinal barrier breakdown induced by rhVEGF165 in pigmented rabbits (vitreous fluorophotometry); assay type: in vivo
Protocol: (§1) To expand the efficacy observation of BOL-303213-X in non-ocular system, an ocular efficacy study was conducted in rabbits that included ocular observations to evaluate tolerance of intravitreal administration of BOL-303213-X in hydroxypropyl methylcellulose (HPMC). A rabbit model of blood-retinal barrier (BRB) breakdown induced by intravitreal administration of recombinant human vascular endothelial growth factor (rhVEGF) was used. This model mimics pathologic situations such as macular edema, in which VEGF contributes to increased retinal vascular permeability resulting in edema. In this study 30 μg BOL-303213-X in 50 μl of HPMC was given 3 or 5 days before the VEGF challenge with the evaluation of the BRB integrity also at 2 days after the VEGF challenge.
BOL-303213-X/HPMC Suspension: Evaluation of Efficacy in Pigmented Rabbits Using a Model of Blood-Retinal Barrier Breakdown Induced by VEGF.
Purpose: The aim of this study was to evaluate the efficacy of BOL-303213-X (30 μg) in hydroxypropyl methylcellulose (HPMC) suspension in pigmented rabbits using a model of blood-retinal barrier breakdown induced by rhVEGF 165.
(§2) Methods: Eighty four (84) pigmented rabbits were allocated into 8 groups: three groups were given an intravitreal injection (50 μl) of BOL-303213-X (30 μg) in HPMC, three groups were given an intravitreal injection of HPMC vehicle and two groups were given no treatment. The rhVEGF 165 challenge was performed three days after the treatment injection to three groups (BOL-303213-X-treated, vehicle-treated, and untreated). The rhVEGF 165 challenge was also performed at five days after the treatment injection to four groups (BOL-303213-X-treated, vehicle-treated (n=2), and untreated). One group served as control for the tolerability of BOL-303213-X injection. Breakdown of the blood-retinal barrier was evaluated 24 h (one vehicle-treated group) and 48 h (the other six groups) after rhVEGF 165 challenge by fluorescein leakage from retinal vasculature into the vitreous using non-invasive scanning ocular fluorophotometry. Assessment of tolerability was evaluated by slit-lamp examination, laser flare measurements (LFM) of anterior chamber using a laser flare meter, intraocular pressure (IOP) measurements using a pneumotonometer and vitreo-retinal fluorophotometry. These examinations were performed before injection, before the rhVEGF165 challenge and the day of euthanasia. Results: The general behavior of animals was not altered by the treatment. […] No relevant complications were found during the clinical follow-up.

[2] = Tolerability of intravitreal BOL-303213-X in HPMC in cats; assay type: in vivo; conditions: intravitreal 10 μg in HPMC, statement also covers four pharmacokinetic studies, visible aggregates in vitreous in certain studies
[3] = system: human dermal microvascular endothelial cells; test: Vascular endothelial cell proliferation (cell viability assay kit), human dermal microvascular endothelial cells; assay type: cell-based; conditions: dose-dependent
Protocol: (§3) Objective: The present study was conducted to evaluate the ability of a novel tyrosine kinase inhibitor, BOL-303213-X, to prevent vascular endothelial cell proliferation in vitro using human retinal, choroidal, and dermal microvascular endothelial cells, as well as bovine retinal endothelial cells. Inhibition of outgrowths in a human choroid explant assay was also used to evaluate BOL-303213-X activity in a more complex multi-cellular angiogenesis ex vivo model. Furthermore, caspase-3/7 and lactate dehydrogenase (LDH) activities were also determined following treatment of human retinal and choroidal endothelial cells with BOL-303213-X as a preliminary measure of cytotoxicity. Methods: Human retinal and choroidal vascular endothelial cells were isolated and cultured from human donor eyes. Human dermal microvascular endothelial cells and bovine retinal endothelial cells were purchased from commercial sources. Vascular endothelial cell proliferation was measured by comparing the number of viable cells using a commercial cell viability assay kit. Inhibition of choroid outgrowths was evaluated in a human explant assay. Caspase-3/7 and LDH activities were utilized to assess cytotoxicity.

[4] = Ocular tolerability following a single intravitreal administration in pigmented rabbits; assay type: in vivo
Protocol: BOL-303213-X In HPMC Suspension. Evaluation of Ocular Tolerability Following a Single Intravitreal Administration in Pigmented Rabbits.
Purpose: The aims of this study were to determine the ocular tolerability and pharmacokinetics of BOL-303213-X in Hydroxy Propyl Methyl Cellulose (HPMC) suspension after a single intravitreal injection at 4 doses: 10, 15, 20 and 30 μg.
Methods: One hundred and two rabbits were allocated into four-dose groups (group 1: 10 μg, group 2: 15 μg, group 3: 20 μg and group 4: 30 μg of BOL-303213-X in HPMC suspension) and one control group (HPMC). Each group was divided in four time-points (15 min, Days 1, 3 and 5) except the control group (one time-point: Day 5). Each animal received an intravitreal injection of test article (50 μl) in the right eye. Tolerability was evaluated by slit lamp examination, anterior chamber inflammation (flare) by laser flare measurements (LFM), intraocular pressure measurements and integrity of the blood retinal barrier (BRB) by vitreous fluorophotometry. These examinations were performed before injection and, on Days 1, 3 and 5. Results: The general behavior of animals was not altered by the treatment. […] No relevant complications were found during the clinical follow-up. […] The blood-retinal barrier was not affected by the different injections. […] There was no difference in IOP between the BOL-303213-X injected and control eyes at any time points.

[5] = system: Human retinal endothelial cells (HREC); test: Network formation assay in Matrigel, human retinal endothelial cells (HREC); assay type: cell-based; conditions: 1% FBS-RF6A medium, 20 ng/ml rhVEGF, 24 hours, approximate, read-out: ED50, inhibition of network formation of human retinal endothelial cells in Matrigel
Protocol: Evaluation of Efficacy of BOL-303213-X In Human Retinal Endothelial Cells (HREC) Using the Network Formation Assay in Matrigel.
Objective: This study was conducted to evaluate the ability of a novel tyrosine kinase inhibitor, BOL-303213-X, to prevent vascular endothelial cell network formation in an in vitro angiogenesis model—network formation assay in Matrigel.
Methods: Human retinal vascular endothelial cells were isolated and cultured from human donor eyes and characterized by Dio-Ac-LDL uptake. Cell network formation was evaluated after these cells were cultured in Matrigel in 1% FBS-RF6A medium with 20 ng/ml rhVEGF and various doses of BOL-303213-X (30, 60, 200, 600 and 1200 nM) for 24 hours. Cell isolates and cultures from three separated donors were used. The total cell network areas were computed by an image analysis software.

[6] = system: human choroidal endothelial cells; test: Vascular endothelial cell proliferation (cell viability assay kit), human choroidal endothelial cells; assay type: cell-based; conditions: dose-dependent
Protocol: as §3

[7] = system: human choroid explant outgrowths; test: Human choroid explant outgrowth assay (ex vivo); assay type: cell-based; conditions: human choroidal outgrowth assay
Protocol: as §3

[8] = system: human retinal endothelial cells; test: Vascular endothelial cell proliferation (cell viability assay kit), human retinal endothelial cells; assay type: cell-based; conditions: dose-dependent
Protocol: as §3

[9] = system: bovine retinal endothelial cells; test: Vascular endothelial cell proliferation (cell viability assay kit), bovine retinal endothelial cells; assay type: cell-based; conditions: dose-dependent
Protocol: as §3

[10] = Ocular tolerability in the rabbit VEGF efficacy study (slit-lamp, laser flare, IOP); assay type: in vivo
Protocol: as §1, §2

[11] = system: laser-induced choroidal neovascularization; test: Laser-induced choroidal neovascularization in cynomolgus monkeys (fluorescein angiography grading); assay type: in vivo, cynomolgus monkeys (Macaca fascicularis)
Excerpt: BOL-303213-X/HPMC Suspension: Evaluation of Efficacy in Monkeys Using a Laser-Induced Choroidal Neovasuclarization Model.
Purpose: This study was done to qualitatively evaluate the potential inhibitory effect of BOL-303213-X on laser-induced choroidal neovascularization in cynomolgus monkeys when administered biweekly by intravitreal injection beginning at the time of laser treatment.
Methods: Eight cynomolgus monkeys (Macaca fascicularis) were used in this study. The animals were assigned to the study using a computerized procedure designed to achieve body weight balance with respect to groups. The animals were anesthetized with ketamine and xylazine and the eyes dilated with a mydriatic. The macula of both eyes of each animal received laser photocoagulation treatment using a 532 nm diode green laser and slit lamp delivery system and a plano fundus contact lens. This is a standard method for inducing choroidal neovascularization. Nine areas were symmetrically placed in the macula of each eye. The laser parameters included a 75 micron spot size, 0.1 second duration at power settings ranging from 400 to 750 mW. […] Fuorescein angiograms were evaluated according to the following grading system for evidence of excessive permeability (i.e. fluorescein leakage). […]

[12] = system: human choroidal endothelial cells; test: Cytotoxicity (caspase-3/7 and LDH activities), confluent human choroidal endothelial cells; assay type: cell-based; conditions: range of concentrations used for efficacy testing
Protocol: as §3

[13] = system: human retinal endothelial cells; test: Cytotoxicity (caspase-3/7 and LDH activities), confluent human retinal endothelial cells; assay type: cell-based; conditions: range of concentrations used for efficacy testing
Protocol: as §3

[14] = 10-30 μg in HPMC, single intravitreal injection

Structure (SMILES): CC(C)Cn1c2ccc(Nc3ncccn3)cc2c2c3c(c4c(c21)CCc1nn(C)cc1-4)C(=O)NC3 [BOL-303213-X]
- Effect on VEGF-induced retinal vascular permeability / blood-retinal barrier breakdown (in words) ([1]; 30 μg in 50 μl HPMC intravitreal, 3 days before VEGF challenge): significantly reduced; also recorded: effective at blocking
- Inhibition of vitreous fluorescein leakage vs rhVEGF165 plus HPMC vehicle ([1]; 30 μg in 50 μl HPMC intravitreal, 3 days before rhVEGF165 challenge, read 48 h after challenge, p=0.04): 52.7%
- Vitreous fluorescein leakage (mean±SD, n=12) ([1]; 30 μg in HPMC intravitreal, 3 days before rhVEGF165 challenge, read 48 h after challenge): 8,458.8±7,067.4
- Vitreous fluorescein leakage (mean±SD, n=12) ([1]; 30 μg in HPMC intravitreal, 5 days before rhVEGF165 challenge): 15,228.2±10,364.6
- Inhibition of vitreous fluorescein leakage vs vehicle ([1]; 30 μg in HPMC intravitreal, 5 days before rhVEGF165 challenge, trend, not statistically significant (p>0.05)): 57.7%
- Ocular tolerability [2]: no major ocular tolerance concerns
- Inhibition of proliferation [3]: inhibited proliferation
- Toxicity by clinical examination, laser flare and IOP measurements ([4]; 10, 15, 20, 30 μg in HPMC, single intravitreal injection 50 μl): no evidence of toxicity
- Clinical observation in the vitreous following the intravitreal injection ([4]; 10-30 μg in HPMC suspension): small aggregate of drug precipitates
- Blood-retinal barrier integrity (vitreous fluorophotometry) [4, 14]: not affected
- Body weights of the animals [4, 14]: within a normal range
- General behavior of animals [4, 14]: not altered
- Anterior chamber inflammation ([4]; 1 day after the injection, not dose-dependent): transient anterior inflammation
- Animals with some inflammatory cells in the vitreous cavity at fundus examination ([4]; Day 5, at least 1 animal of each group (control group included)): 9 rabbits out of 30
- Overall safety conclusion ([4]; HPMC suspension at 10, 15, 20 and 30 μg-doses, normal pigmented rabbit): appeared to be safe
- IOP, injected vs control eyes ([4]; any time points): no difference
- EC50 [5]: ~180 nM
- Inhibition of proliferation [6]: inhibited proliferation
- Inhibition of choroid outgrowths [7]: effective in inhibiting choroid outgrowths
- Inhibition of proliferation [8]: inhibited proliferation
- Inhibition of proliferation [9]: inhibited proliferation
- Ocular tolerance observations ([10]; 30 μg in 50 μl HPMC intravitreal, except some eyes with blurred vitreous): no observed tolerance concerns
- Body weights of the animals ([10]; 30 μg in HPMC, intravitreal): within a normal range
- General behavior of animals ([10]; 30 μg in HPMC, intravitreal): not altered
- Toxicity by slit-lamp examination, laser flare and IOP measurements ([10]; 30 μg in HPMC, single intravitreal injection): no evidence of toxicity
- Overall safety conclusion ([10]; HPMC suspension at 30 μg-dose, normal pigmented rabbits): appeared to be safe
- Percent of grade IV lesions vs HPMC-vehicle contralateral eye ([11]; 45 μg in HPMC intravitreal after laser and two weeks post-laser, 2, 3 and 4 weeks post-laser): consistently lower
- Inhibition of choroidal neovascularization (in words) ([11]; 45 μg in HPMC suspension, injected after laser challenge): effective at inhibiting choroidal neovascularization
- Caspase-3/7 activity [12]: no significant increase
- LDH activity [12]: no significant increase
- Caspase-3/7 activity [13]: no significant increase
- LDH activity [13]: no significant increase
